Laboratory results published in patent publication US11965039B2, “Compstatin analogues and their medical uses” (priority 2018, dated 2024).
Positions of bridges follow the written chain, without caps; N, C: chain ends. Non-standard residues stand in square brackets, D forms with d. Residues, ends and D or L forms follow the SMILES beside them. Trp(1-Me) = Cn1cc(C[C@H](N)C(=O)O)c2ccccc21; Sar = CNCC(=O)O

Tests used:
[1] = test system: classical complement pathway; experiment: In vitro haemolysis assay (inhibition of classical complement pathway); format: cell-based, human; settings: human serum, sensitized sheep red blood cells; Table 3, given as upper bounds; read-out: IC50, inhibition of hemolysis
Procedure, shortened: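 Compound dilutions preincubated 15 min at room temperature with diluted human serum (titrated per batch for 70-90% maximal haemolysis), then antibody-sensitized sheep RBC (10^7/well) added for 30 min at 37 °C in Tris/casein buffer, pH 7.4. Stopped with EDTA; haemolysis read at 405 nm; IC50 by 4PL fit.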

[2] = test system: alternative complement pathway; experiment: Ex vivo alternative pathway complement activity (WIESLAB kit) after s.c. dosing in non-human primates; set-up: species or system Cynomolgus monkeys (Macaca fascicularis); settings: NHP, subcutaneous 1840 nmol/kg, FIG. 1a-f
Method: FIG. 1(a-f): Normalized “ex vivo” activity of the alternative complement pathway over time after administration of a test compound at time 0 to one or two non-human primates. Compounds were given subcutaneously at a dose of 1840 nmol/kg. Complement activity (alternative pathway) was measured using the Wieslab kit. Activity was normalized using the predose (0) sample (set to 100%) and the negative control included in the kit. Normalized activity or average normalized activity for both animals and standard deviation is shown.
Healthy male Cynomolgus monkeys (Macaca fascicularis) received single subcutaneous administrations of each test substance. Compounds were formulated in 20 mM phosphate adjusted with NaOH to pH 7.5 and mannitol for isotonicity and dosed at 1840 nmol/kg. Blood was collected from a femoral vein from each animal at the following times: Pre-dose, 1, 2, 4, 8, 24, 48, 72, 96 and 120 h (10 sampling times). Blood was collected into serum separation tubes and allowed to clot at room temperature. The tubes were centrifuged and resulting serum was aliquoted and snap-frozen over dry-ice and stored at nominally −80° C. until analysis. All NHP studies were performed in accordance with animal welfare laws and regulations, including approval of the study by a local ethical review process.
Serum isolated from non-human primates at specific time points after dosing were analyzed for alternative pathway complement activity using the Complement system Alternative Pathway WIESLAB® kit from Svar Life Science (previously Euro diagnostic AB, Sweden) following the manufacturer's protocol. Briefly, serum samples or controls were diluted in buffer and incubated in microtitre strips coated with specific activators of the alternative pathway. The wells were washed and formed C5b-9 was detected using included colorimetric reagents. Absorbance at 405 nm was measured. The percent activity of the alternative complement pathway was calculated for each animal and timepoint relative to the pre-dose activity (0 hours) of the individual animal with subtraction of the negative control. […]

[3] = Solubility test at 10 mg/mL (visual inspection and light scattering); format: physicochemical; settings: for Solubility, Condition 1: Acetate pH 4; for Solubility, Condition 2: Acetate pH 5; for Solubility, Condition 3: Phosphate pH 6; for Solubility, Condition 4: Phosphate pH 7; for Solubility, Condition 5: Phosphate pH 7.5
[4] = molecular target: T1, Human C3 (Complement tech cat #A113c) (human, UniProt P01024 23-1663); experiment: cell-based or functional assay
T1 sequence (P01024 23-1663 limits assumed): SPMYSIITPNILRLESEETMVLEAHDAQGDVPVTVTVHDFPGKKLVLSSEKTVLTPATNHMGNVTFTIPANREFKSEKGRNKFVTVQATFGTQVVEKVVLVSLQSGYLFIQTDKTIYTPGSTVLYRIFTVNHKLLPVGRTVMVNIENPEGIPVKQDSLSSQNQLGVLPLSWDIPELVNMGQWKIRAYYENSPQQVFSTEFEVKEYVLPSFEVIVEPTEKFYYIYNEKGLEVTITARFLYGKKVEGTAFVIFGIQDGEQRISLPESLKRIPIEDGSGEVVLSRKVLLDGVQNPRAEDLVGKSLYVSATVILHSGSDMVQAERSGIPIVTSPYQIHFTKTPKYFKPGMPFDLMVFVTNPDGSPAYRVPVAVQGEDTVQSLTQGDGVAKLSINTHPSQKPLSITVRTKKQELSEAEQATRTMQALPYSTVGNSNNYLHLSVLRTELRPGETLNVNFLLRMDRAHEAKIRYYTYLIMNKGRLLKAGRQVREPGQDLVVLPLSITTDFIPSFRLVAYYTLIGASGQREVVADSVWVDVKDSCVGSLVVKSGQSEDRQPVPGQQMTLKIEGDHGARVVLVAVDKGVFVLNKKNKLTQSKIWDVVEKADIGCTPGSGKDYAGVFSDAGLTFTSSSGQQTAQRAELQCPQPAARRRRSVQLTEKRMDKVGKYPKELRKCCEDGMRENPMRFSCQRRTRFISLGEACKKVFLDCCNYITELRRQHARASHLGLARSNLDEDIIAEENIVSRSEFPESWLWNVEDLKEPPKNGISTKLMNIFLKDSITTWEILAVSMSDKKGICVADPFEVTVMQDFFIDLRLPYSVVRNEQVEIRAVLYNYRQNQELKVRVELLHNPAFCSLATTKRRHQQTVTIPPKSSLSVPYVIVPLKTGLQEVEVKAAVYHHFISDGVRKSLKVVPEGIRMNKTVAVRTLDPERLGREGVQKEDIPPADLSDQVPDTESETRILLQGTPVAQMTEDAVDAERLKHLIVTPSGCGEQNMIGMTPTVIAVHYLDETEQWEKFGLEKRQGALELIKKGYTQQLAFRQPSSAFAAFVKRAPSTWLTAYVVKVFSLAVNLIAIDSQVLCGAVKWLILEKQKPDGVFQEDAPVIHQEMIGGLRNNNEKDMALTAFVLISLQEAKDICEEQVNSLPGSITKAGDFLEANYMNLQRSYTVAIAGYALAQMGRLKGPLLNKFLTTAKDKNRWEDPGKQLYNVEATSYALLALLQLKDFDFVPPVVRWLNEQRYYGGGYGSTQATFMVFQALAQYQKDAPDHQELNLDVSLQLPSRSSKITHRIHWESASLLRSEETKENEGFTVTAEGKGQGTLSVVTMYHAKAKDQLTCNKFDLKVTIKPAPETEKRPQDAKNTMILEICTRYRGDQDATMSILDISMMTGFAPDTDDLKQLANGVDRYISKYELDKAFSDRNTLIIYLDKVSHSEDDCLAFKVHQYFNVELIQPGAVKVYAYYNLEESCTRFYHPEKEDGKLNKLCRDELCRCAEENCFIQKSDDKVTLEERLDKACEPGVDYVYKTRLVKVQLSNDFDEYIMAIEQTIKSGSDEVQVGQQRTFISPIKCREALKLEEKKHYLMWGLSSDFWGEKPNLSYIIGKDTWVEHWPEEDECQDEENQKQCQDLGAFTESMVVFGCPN

[5] = molecular target: T1, Human C3 (Complement tech cat #A113c); experiment: cell-based or functional assay; remark: listed apart in the source

| Molecule | IC50 [1] [nM] | duration of action (alternative pathway complement activity) [2] | Solubility, Condition 1 [3] | Solubility, Condition 2 [3] | Solubility, Condition 3 [3] | Solubility, Condition 4 [3] | Solubility, Condition 5 [3] | CP hemolysis IC50 [4] [nM] | inhibition of hemolysis IC50 [5] [nM] |
| --- | --- | --- | --- | --- | --- | --- | --- | --- | --- |
| CC[C@H](C)[C@@H]1NC(=O)[C@@H](NC(=O)[C@H](Cc2ccccc2)NC(C)=O)CSSC[C@@H](C(=O)N[C@H](C(=O)NCC(=O)N[C@@H](C)C(=O)N[C@@H](CCC(=O)O)C(=O)N[C@@H](CO)C(N)=O)[C@@H](C)O)NC(=O)[C@H](CCCNC(=N)N)NC(=O)[C@H](Cc2c[nH]cn2)NC(=O)[C@H](CCC(=O)O)NC(=O)CNC(=O)[C@H](Cc2c[nH]c3ccccc23)NC(=O)[C@H](CC(=O)O)NC(=O)[C@H](CCC(N)=O)NC(=O)[C@H](Cc2cn(C)c3ccccc23)NC1=O [Compound 61] (Ac-FCI[Trp(1-Me)]QDWGEHRCTGAES-NH2; disulfide 2-12) | < 100 | relatively short duration of action | − (“−” denotes lack of solubility at the given condition, as UV absorbance at 340 nm exceeds 0.1 AU and/or it is visibly turbid or contains particles) | − (“−” denotes lack of solubility at the given condition, as UV absorbance at 340 nm exceeds 0.1 AU and/or it is visibly turbid or contains particles) | + (“+” denotes solubility at the given condition, as determined by UV absorbance being less than 0.1 AU at 340 nm and the sample being clear when manually inspected) | + (“+” denotes solubility at the given condition, as determined by UV absorbance being less than 0.1 AU at 340 nm and the sample being clear when manually inspected) | + (“+” denotes solubility at the given condition, as determined by UV absorbance being less than 0.1 AU at 340 nm and the sample being clear when manually inspected) |  |  |
| CC[C@H](C)[C@H](NC(=O)[C@H](N)Cc1ccc(O)cc1)C(=O)N[C@H]1CSSC[C@@H](C(=O)N(C)[C@H](C(N)=O)[C@@H](C)CC)NC(=O)[C@H](CCCNC(=N)N)NC(=O)[C@H](Cc2c[nH]cn2)NC(=O)[C@H](C)NC(=O)CN(C)C(=O)[C@H](Cc2c[nH]c3ccccc23)NC(=O)[C@H](CC(=O)O)NC(=O)[C@H](CCC(N)=O)NC(=O)[C@H](Cc2cn(C)c3ccccc23)NC(=O)[C@H](C(C)C)NC1=O [Cp40, H-{d}YIC(1)V[1-Me-Trp]QDW[Sar]AHRC(1)[N-Me-Ile]-NH2, reference compound] | < 100 | relatively short duration of action |  |  |  |  |  |  |  |
| CC[C@H](C)[C@@H]1NC(=O)[C@@H](NC(=O)[C@H](Cc2ccc(O)cc2)NC(=O)[C@H](C)NC(=O)[C@H](CO)NC(=O)CNC(=O)[C@H](CCC(=O)O)NC(C)=O)CSSC[C@@H](C(=O)N(C)CC(=O)N[C@@H](CCC(=O)O)C(N)=O)NC(=O)[C@H](CCCNC(=N)N)NC(=O)[C@H](Cc2c[nH]cn2)NC(=O)[C@H](CCC(=O)O)NC(=O)CNC(=O)[C@H](Cc2c[nH]c3ccccc23)NC(=O)[C@H](CC(=O)O)NC(=O)[C@H](CCC(N)=O)NC(=O)[C@H](Cc2cn(C)c3ccccc23)NC1=O [Compound 54] (Ac-EGSAYCI[Trp(1-Me)]QDWGEHRC[Sar]E-NH2; disulfide 6-16) | < 100 | relatively short duration of action | − (“−” denotes lack of solubility at the given condition, as UV absorbance at 340 nm exceeds 0.1 AU and/or it is visibly turbid or contains particles) | − (“−” denotes lack of solubility at the given condition, as UV absorbance at 340 nm exceeds 0.1 AU and/or it is visibly turbid or contains particles) | + (“+” denotes solubility at the given condition, as determined by UV absorbance being less than 0.1 AU at 340 nm and the sample being clear when manually inspected) | + (“+” denotes solubility at the given condition, as determined by UV absorbance being less than 0.1 AU at 340 nm and the sample being clear when manually inspected) | + (“+” denotes solubility at the given condition, as determined by UV absorbance being less than 0.1 AU at 340 nm and the sample being clear when manually inspected) |  |  |
| Ac-ICIWQDWGAHRCT-NH2 (disulfide 2-12; SMILES CC[C@H](C)[C@H](NC(C)=O)C(=O)N[C@H]1CSSC[C@@H](C(=O)N[C@H](C(N)=O)[C@@H](C)O)NC(=O)[C@H](CCCNC(=N)N)NC(=O)[C@H](Cc2c[nH]cn2)NC(=O)[C@H](C)NC(=O)CNC(=O)[C@H](Cc2c[nH]c3ccccc23)NC(=O)[C@H](CC(=O)O)NC(=O)[C@H](CCC(N)=O)NC(=O)[C@H](Cc2c[nH]c3ccccc23)NC(=O)[C@H]([C@@H](C)CC)NC1=O) [Compound 1] |  |  |  |  |  |  |  | 150 | < 250 |
